In patent US7378232B2 (priority 2002, dated 2008):

System: wild-type melan-a melanocytes (A) and P-null melanocytes (P)
Assay: not given
Format: cell-based
Settings: not given

Molecule	TOXIN S[…] (as a function of P protein expression)	TOXIN S[…] CHANGE (as a function of P protein expression)
CC[C@]1(O)C[C@@H]2CN(CCc3c([nH]c4ccccc34)[C@@](C(=O)OC)(c3cc4c(cc3OC)N(C)[C@H]3[C@@](O)(C(=O)OC)[C@H](OC(C)=O)[C@]5(CC)C=CCN6CC[C@]43[C@@H]65)C2)C1 [VINBLASTINE, vinblastine]	✓	
CCN(CC)CCCC(C)Nc1ccnc2cc(Cl)ccc12 (stereo not shown) [CHLOROQUINE, chloroquine]	✓	
C[C@@H]1C[C@@H]([C@H](O)CC2CC(=O)NC(=O)C2)C(=O)[C@@H](C)C1 [CYCLOHEXIMIDE, cycloheximide]	✓	
C=C(CC)C(=O)c1ccc(OCC(=O)O)c(Cl)c1Cl [ETHACRYNIC ACID, ethacrynic acid]	✓	
arsenate	✓	
CC[C@H]1/C=C/C=C/C[C@@H](C)[C@H](O)[C@@](C)(O)C(=O)[C@@H](C)[C@H](O)[C@@H](C)C(=O)[C@@H](C)[C@H](O)[C@@H](C)/C=C/C(=O)O[C@@H]2[C@H](C)[C@H](CC1)O[C@]1(CC[C@H](C)[C@H](C[C@@H](C)O)O1)[C@H]2C [OLIGOMYCIN, oligomycin]	✓	
CO/C1=C\C(C)=C\[C@@H](C)[C@@H](O)[C@@H](C)C/C(C)=C/C=C/[C@H](OC)[C@@H]([C@@H](C)[C@@H](O)[C@H](C)[C@@]2(O)C[C@@H](O)[C@H](C)[C@@H](C(C)C)O2)OC1=O [BAFILOMYCIN Al, bafilomycin A1]	✓	
CCCCS(=N)(=O)CCC(N)C(=O)O (stereo not shown) [BUTHIONINE SULFOXIMINE (BSO), buthionine sulfoximine]	✓	
arsenic trioxide	✓	
O=S(=O)([O-])[O-].[Fe+2] [IRON SULFATE (FESO4), iron sulfate (FeSO4)]	✓	
CC(C)[C@@H]1NC(=O)[C@H](C)OC(=O)[C@@H](C(C)C)NC(=O)[C@@H](C(C)C)OC(=O)[C@H](C(C)C)NC(=O)[C@H](C)OC(=O)[C@@H](C(C)C)NC(=O)[C@@H](C(C)C)OC(=O)[C@H](C(C)C)NC(=O)[C@H](C)OC(=O)[C@@H](C(C)C)NC(=O)[C@@H](C(C)C)OC1=O [VALINOMYCIN, valinomycin]	✓	
N#CC(C#N)=NNc1ccc(OC(F)(F)F)cc1 [FCCP, carbonyl cyanide p-trifluoromethoxyphenylhydrazone]	✓	
N.N.[Cl][Pt][Cl] [CISPLATIN, cisplatin]	✓	
arsenite	✓	
COc1cccc2c1C(=O)c1c(O)c3c(c(O)c1C2=O)C[C@@](O)(C(=O)CO)C[C@@H]3O[C@H]1C[C@H](N)[C@H](O)[C@H](C)O1 [DOXORUBICIN, doxorubicin]	✓	
O=[Se](=O)(O)O [SELENATE, selenate]	✓	
C=CCC(N)C(=O)O (stereo not shown) [ALLYLGLYCINE, allylglycine]		✓
C[C@@H]1[C@H](O)[C@@H](C)/C=C/C=C/C=C/C=C/C=C/C=C/C=C/[C@H](O[C@@H]2O[C@H](C)[C@@H](O)[C@H](N)[C@@H]2O)C[C@@H]2O[C@](O)(C[C@@H](O)C[C@@H](O)[C@H](O)CC[C@@H](O)C[C@@H](O)CC(=O)O[C@H]1C)C[C@H](O)[C@H]2C(=O)O [AMPHOTERICIN, amphotericin]		✓
[Sb] [ANTIMONY, antimony]	✓	
COc1cc(NC(C)CCCN)c2ncccc2c1 (stereo not shown) [PRIMAQUINE, primaquine]		✓
[Cd] [CADMIUM, cadmium]	✓	

System: yeast cells expressing the P protein
Assay: Nigericin effect on yeast cell viability, P protein-expressing cells
Format: cell-based
Settings: Saccharomyces cerevisiae, data not shown

Molecule	IC50
CO[C@@H]1C[C@@H](C[C@H]2CC[C@H](C)[C@H]([C@@H](C)C(=O)O)O2)O[C@]2(O[C@](C)([C@H]3CC[C@@](C)([C@@H]4O[C@@H]([C@H]5O[C@@](O)(CO)[C@H](C)C[C@@H]5C)C[C@@H]4C)O3)C[C@H]2C)[C@@H]1C [nigericin]	3 µM

System: yeast cells not expressing the P protein
Assay: Nigericin effect on yeast cell viability, cells without P protein
Format: cell-based
Settings: Saccharomyces cerevisiae, data not shown

Molecule	IC50
CO[C@@H]1C[C@@H](C[C@H]2CC[C@H](C)[C@H]([C@@H](C)C(=O)O)O2)O[C@]2(O[C@](C)([C@H]3CC[C@@](C)([C@@H]4O[C@@H]([C@H]5O[C@@](O)(CO)[C@H](C)C[C@@H]5C)C[C@@H]4C)O3)C[C@H]2C)[C@@H]1C [nigericin]	25 µM

System: P protein-expressing yeast cells and control yeast cells
Assay: Selenite exposure of yeast: colony size and red precipitate formation
Format: cell-based
Settings: 10-50 mM selenite in agar, 30° C. for 3 days, FIG. 3B
Method: In another experiment, P protein-expressing yeast cells and control yeast cells were exposed to various concentrations of selenite. The toxic affect of selenite in yeast is believed to be due to DNA damage. The major mode of selenite detoxification appears to be its reduction by glutathione to elementary selenium that accumulates as a red precipitate in the cell vacuole (Pinson et al. Molecular Microbiology 36:679-687(2000)).
10 mM, 20 mM, 30 mM, 40 mM, and 50 mM selenite solutions were prepared in 55° C. selective medium-agar and plated in duplicate into 24-well plates. Actively growing yeast cultures were diluted to A600 values of 0.001, and then 10 μl aliquots were spotted in duplicate onto the selenite-containing agar medium. Plates were incubated at 30° C. for 3 days. […]

Molecule	red precipitate accumulation in P-expressing cells vs control cells	selenite sensitivity, cells expressing a P protein versus control cells
O=[Se](O)O [selenite]	accumulate more red precipitate	no difference

System: yeast cells expressing / not expressing the P protein (strain SH3866)
Assay: not given
Format: cell-based
Settings: not given

Molecule	yeast colony size, P protein-expressing vs non-expressing colonies exposed to the compound
[Sb] [ANTIMONY, antimony]	do not reach the same size

Same assay, conditions: 24-well selective medium-agar, 30° C. for 3 days, FIG. 3A

Molecule	yeast colony size, P protein-expressing vs non-expressing colonies exposed to the compound
arsenate	do not reach the same size
arsenic trioxide	do not reach the same size
